Non-standard residues stand in square brackets, D forms with d. Residues, ends and D or L forms follow the SMILES beside them. *: point of attachment. Desaminotyrosyl = O=C(CCc1ccc(O)cc1)*; Nle = CCCC[C@H](N)C(=O)O; Orn = NCCC[C@H](N)C(=O)O; Abu = CC[C@H](N)C(=O)O; GABA = NCCCC(=O)O
Assays:
GH release [1] = test: GH releasing potency in vivo, intravenous administration (Example 14, Table 13); design: species or system rat; details: i.v.
Experimental: Male Sprague-Dawley rats, weighing 200-250 g, were purchased from Charles River Laboratory (Wilmington, Mass.) and used for experiments. All animal procedures were approved by the Veterans Affairs Animal Care and Use Committee and were conducted in accordance with additional institutional guidelines as well. Briefly, groups of 5-6 animals were used in each experiment. The rats were anesthetized with 50 mg/kg of sodium pentobarbital (Nembutal, Lundbeck Inc., Deerfield, Ill.). Twenty min after inducing anesthesia, GHRH(1-29)NH2, JI-38, or new analogs were injected into the animals intravenously (i.v.) or subcutaneously (s.c.). The peptides were dissolved in 0.01 M acetic acid to get 1 μg/μl stock solution, and then diluted with 5% mannitol. Control rats received 5% mannitol only. Blood samples were collected from the jugular vein at selected times and were used for serum preparation. Concentrations of GH in rat sera were determined by ELISA. The relative potencies of tested peptides were calculated using GHRH(1-29)NH2 and JI-38 for comparison, whose potency was defined as 1. The equivalent dosage of GHRH(1-29)NH2 to reach the same level of serum growth hormone release after injection of the specific tested peptide was determined from a GHRH(1-29)NH2 standard curve using Origin 6.0 software. […] Serum GH was determined using the rat Growth Hormone ELISA kit (ALPCO Diagnostics, Mill Valley, Calif.) according to the manufacturer's instruction. Absorbance at 405 nm was measured by a Victor 3 Multi-label Counter (Perkin-Elmer, Waltham, Md.).

GH release [2] = test: In vivo endocrine activity, GH release after intravenous administration (Table 8); details: rat, i.v. injection
GHRH receptor [3] = biological target: T1, GHRH receptor (Homo sapiens, UniProt Q02643); test: Receptor binding in vitro, 125I-labeled [His1,Nle27]-hGHRH(1-32)NH2, membrane receptors of human anterior pituitary cells (Table 14)
T1 sequence (Q02643 23-423): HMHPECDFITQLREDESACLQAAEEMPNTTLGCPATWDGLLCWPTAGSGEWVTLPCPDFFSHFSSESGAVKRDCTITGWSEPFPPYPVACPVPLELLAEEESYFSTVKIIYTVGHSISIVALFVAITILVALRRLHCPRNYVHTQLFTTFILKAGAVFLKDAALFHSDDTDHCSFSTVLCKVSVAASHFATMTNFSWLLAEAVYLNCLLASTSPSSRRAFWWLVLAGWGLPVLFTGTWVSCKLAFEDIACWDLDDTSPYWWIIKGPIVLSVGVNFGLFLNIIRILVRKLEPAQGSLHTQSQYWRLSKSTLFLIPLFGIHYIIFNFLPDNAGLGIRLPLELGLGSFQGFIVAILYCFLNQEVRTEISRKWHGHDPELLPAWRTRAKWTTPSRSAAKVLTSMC

GH release [4] = test: In vivo endocrine activity, GH release after subcutaneous administration (Table 9); details: rat, subcutaneous (s.c.) injection
Experimental: Subcutaneous Administration. Adult male rats were used and anesthetized with pentobarbital (6 mg/100 g, b.w.), by i.p. injection. […] Blood samples were taken from the jugular vein 5, 15 and/or 30 minutes after the injection. The blood samples were centrifuged, plasma was removed and the GH level was measured byELISA. The results are summarized in terms of potency in Table 9.

GHRH receptor [5] = biological target: T1, GHRH receptor; test: GHRH receptor binding, competition with 125I-labeled JV-1-42, human pituitary membrane homogenates (Table 5); design: Normal human pituitaries were purchased from the National Hormone and Peptide Program; tissue National Hormone and Peptide Program (A.F. Parlow, Harbor-UCLA Medical Center, Torrance, Calif.); host or cells: normal human pituitary, membrane fraction
Experimental: Normal human pituitaries were purchased from the National Hormone and Peptide Program (A.F. Parlow, Los Angeles, County Harbor-UCLA Medical Center, Torrance, Calif.). Briefly, in competitive binding analysis, ^125I-labeled JV-1-42 ([…]) was displaced by GHRH agonists at 10^−6 to 10^−12 M.
The final binding affinities were expressed as IC50 values and were calculated by using the LIGAND PC computerized curve-fitting program of Munson and Rodbard as modified by McPherson.

GHRH receptor [6] = biological target: T1, GHRH receptor; test: GHRH receptor binding, competition with 125I-labeled JV-1-42, human pituitary membrane homogenates (Table 7); design: Normal human pituitaries were purchased from the National Hormone and Peptide Program; tissue National Hormone and Peptide Program (A.F. Parlow, Harbor-UCLA Medical Center, Torrance, Calif.); host or cells: normal human pituitary, membrane fraction; details: JI-38 = 1, Table 7
Description: Normal human pituitaries were purchased from the National Hormone and Peptide Program (A.F. Parlow, Los Angeles, County Harbor-UCLA Medical Center, Torrance, Calif.).

GH release [7] = test: GH releasing potency in vivo, subcutaneous administration (Example 14, Table 12); design: species or system rat; details: s.c.
In short: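 Potency is expressed relative to GHRH(1-29)NH2 and JI-38 (each = 1), via equivalent GHRH(1-29)NH2 dose read from a standard curve. Peptides in 5% mannitol given i.v. or s.c. to anaesthetised male Sprague-Dawley rats (200-250 g); serum GH measured by ELISA at selected times.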

- Relative affinity (Binding potency) compared to JI-38 (GHRH receptor [3]; JI-38 = 1): 0.83
- Relative affinity (Binding potency) compared to hGHRH(1-29) (GHRH receptor [3]; hGHRH(1-29)NH2 = 1): 2.31
- Relative affinity (Binding potency) vs GHRH (GHRH receptor [5]; GHRH(1-29) = 1, Table 5): 81.2
- Relative affinity (Binding potency) vs JI-38 (GHRH receptor [5]; JI-38 = 1, Table 5): 34.2
- Relative affinity (Binding potency) vs JI-38 (GHRH receptor [6]): 5.06
SMILES: CCCC[C@H](NC(=O)[C@@H](NC(=O)[C@H](CC(=O)O)NC(=O)[C@H](CCC(N)=O)NC(=O)[C@H](CC(C)C)NC(=O)[C@H](CC(C)C)NC(=O)[C@H](CCCN)NC(=O)[C@H](CCCNC(=N)N)NC(=O)[C@H](C)NC(=O)[C@H](CO)NC(=O)[C@H](CC(C)C)NC(=O)[C@H](CCC(N)=O)NC(=O)[C@H](CC)NC(=O)[C@H](CC(C)C)NC(=O)[C@@H](NC(=O)[C@H](CCCN)NC(=O)[C@H](CCCNC(=N)N)NC(=O)[C@H](Cc1ccc(O)cc1)NC(=O)[C@H](CO)NC(=O)[C@H](CC(N)=O)NC(=O)[C@@H](NC(=O)[C@H](Cc1ccccc1)NC(=O)[C@@H](NC(=O)[C@H](C)NC(=O)[C@H](CC(=O)O)NC(=O)[C@@H](C)NC(=O)CCc1ccc(O)cc1)[C@@H](C)CC)[C@@H](C)O)C(C)C)[C@@H](C)CC)C(=O)N[C@@H](CO)C(=O)N[C@@H](CCCNC(=N)N)C(=O)N[C@@H](CCC(N)=O)C(=O)NCCCC(N)=O [Peptide P-29702, [Dat^1, D-Ala^2, Orn^12, Abu^15, Orn^21, Nle^27, Gln-Gab^30]hGHRH(1-30)NH2] (Desaminotyrosyl-[dA]DAIFTNSYR[Orn]VL[Abu]QLSAR[Orn]LLQDI[Nle]SRQ[GABA]-NH2)
- Relative potency, 5 min (GH release [1]; 5 min, JI-38 = 1): 1.07
- Relative potency, 15 min (GH release [1]; 15 min, JI-38 = 1): 1.38
- Serum GH level at selected time after injection (ng/ml), 0 min (GH release [1]; dose 1 μg/kg, 0 min, mean ± SEM): 47.7 ± 3.4 ng/mL
- Serum GH level at selected time after injection (ng/ml), 5 min (GH release [1]; dose 1 μg/kg, 5 min, mean ± SEM): 578 ± 87.7 ng/mL
- Serum GH level at selected time after injection (ng/ml), 15 min (GH release [1]; dose 1 μg/kg, 15 min, mean ± SEM): 273 ± 40.8 ng/mL
- GH releasing potency in vivo relative to JI-38 (=1) (GH release [2]; 5 min after): 0.98
- GH releasing potency in vivo relative to JI-38 (=1) (GH release [2]; 15 min after): 0.99
- GH releasing potency in vivo relative to JI-38 (=1) (GH release [2]; 30 min after): 1.22
- GH releasing potency relative to JI-38 (=1) (GH release [4]; 15 min after): 0.53
- GH releasing potency relative to JI-38 (=1) (GH release [4]; 30 min after): 0.73
- Serum GH level at selected time after injection (ng/ml), 0 min (GH release [7]; male rats, dose 3 μg/kg, 0 min, mean ± SEM): 43.7 ± 5^ ng/ml
- Serum GH level at selected time after injection (ng/ml), 15 min (GH release [7]; male rats, dose 3 μg/kg, 15 min, mean ± SEM): 103.7 ± 23.1 ng/mL
- Serum GH level at selected time after injection (ng/ml), 30 min (GH release [7]; male rats, dose 3 μg/kg, 30 min, mean ± SEM): 85 ± 27.8 ng/mL
- Relative potency compared to GHRH(1-29), 15 min (GH release [7]; 15 min): 22.4
- Relative potency compared to JI-38, 15 min (GH release [7]; 15 min): 0.35
- Relative potency compared to GHRH(1-29), 30 min (GH release [7]; 30 min): 53.5
- Relative potency compared to JI-38, 30 min (GH release [7]; 30 min): 0.48
